Experimental findings from PMC7803973, “Structural basis of malaria parasite phenylalanine tRNA-synthetase inhibition by bicyclic azetidines” (Nature Communications, 2021) are described below.

Several values for one entry are separate records, joined by “and”; a condition that tells them apart may be missing. Identical values can stand only once.

One assay addresses PfcFRS mutant (L550V) (Plasmodium falciparum, UniProt Q8I246, L550V). As to the kind of experiment: Malachite green aminoacylation enzyme inhibition assay. Type of assay: biochemical. How it is done: These were done using malachite green assay as per earlier published reports[1],[6]. Briefly, the reaction was performed for 100 µM ATP, 50 µM L-phenylalanine and 100 nM recombinant PheRS enzymes (Pf, Pv, Hs, Pf mutant (L550V)) in a buffer containing 30 mM HEPES (pH 7.5), 150 mM, NaCl, 30 mM KCl, 50 mM, MgCl2, 1 mM DTT, and 2 U/ml E. coli inorganic pyrophosphatase (NEB) at 37 °C. Enzymatic reactions (50 μl total volume) were performed in clear, flat-bottomed, 96-well plates (Costar 96-well standard microplates). The reaction mixture was incubated for 2 h at 37 °C. The reaction was stopped by adding 12.5 μl of malachite green solution to the reaction mixture and levels of inorganic phosphate (Pi) were detected after incubation of 5 min at room temperature. Absorbance was the measured at 620 nm using a Spectramax M2 (Molecular Devices). Reactions without FRS enzyme were performed as background controls, values of which were subtracted from the reactions with enzyme. BRD1389 was added to our aminoacylation assay reaction buffer in varying concentrations ranging from 0.1 nM to 10,000 nM. The IC50 value for the data is shown for three replicates as the mean ± SD.

A further assay concerns Dd2. As to the kind of experiment: Whole parasite growth inhibition (Dd2), quoted in peer review file. To be noted: quoted by Reviewer #2 from the submitted manuscript. Type of assay: cell-based.
Assay [1] deals with Plasmodium falciparum strain 3D7. Nature of the assay: Parasite growth inhibition (drug susceptibility test, pLDH readout). The class given is cell-based. How it is done:
The cultivation of P. falciparum was conducted according to Trager’s method with some modification. Precisely, parasites were kept in culture flasks with RPMI1640 medium supplemented with 10% human plasma and 2% fresh human erythrocytes and incubated at 37 °C with the gas condition of 5% CO2 and 5% O2. The parasitemia (percentage of infected erythrocytes to total erythrocytes) were kept within 0.25–10%. Culture medium was replaced, and fresh erythrocytes were supplied every 2–3 days. Drug susceptibility test was conducted according to Desjardins’s method[18] with some modification. […] […] The plates were kept at 37 °C with the gas condition of 5% CO2 and 5% O2 for 72 h and then parasite growth was quantified with Makler’s method to detect plasmdoial lactate dehydrogenase[19] with some modification. Precisely, culture plates were kept in freezer overnight and then thawed at 37 °C to disrupt the erythrocytes and parasite cells. In the new 96-well titer plates, 100 μl of enzyme reaction solution (110 mM Li-lactate, 0.5 mM acetylpyridine-adenine dinucleotide, 50 mM Tris (pH 7.5), 10 mM EDTA, 50 mM KCl, and 15 g l^−1 PEG6000) and 20 µl of freeze-thaw culture were mixed in each well and then kept at room temperature for 30 min. The detection solution was prepared by mixing equal volume of 2 mg ml^−1 nitro blue tetrazolium and 0.1 mg ml^−1 phenazine ethosulfate and 20 µl of the solution was added to each well.

[2] abbreviates: 2 h, read-out: % Enzyme Activity.

Sequence of PfcFRS mutant (L550V) (Q8IIW2 whole entry, stated change not applied): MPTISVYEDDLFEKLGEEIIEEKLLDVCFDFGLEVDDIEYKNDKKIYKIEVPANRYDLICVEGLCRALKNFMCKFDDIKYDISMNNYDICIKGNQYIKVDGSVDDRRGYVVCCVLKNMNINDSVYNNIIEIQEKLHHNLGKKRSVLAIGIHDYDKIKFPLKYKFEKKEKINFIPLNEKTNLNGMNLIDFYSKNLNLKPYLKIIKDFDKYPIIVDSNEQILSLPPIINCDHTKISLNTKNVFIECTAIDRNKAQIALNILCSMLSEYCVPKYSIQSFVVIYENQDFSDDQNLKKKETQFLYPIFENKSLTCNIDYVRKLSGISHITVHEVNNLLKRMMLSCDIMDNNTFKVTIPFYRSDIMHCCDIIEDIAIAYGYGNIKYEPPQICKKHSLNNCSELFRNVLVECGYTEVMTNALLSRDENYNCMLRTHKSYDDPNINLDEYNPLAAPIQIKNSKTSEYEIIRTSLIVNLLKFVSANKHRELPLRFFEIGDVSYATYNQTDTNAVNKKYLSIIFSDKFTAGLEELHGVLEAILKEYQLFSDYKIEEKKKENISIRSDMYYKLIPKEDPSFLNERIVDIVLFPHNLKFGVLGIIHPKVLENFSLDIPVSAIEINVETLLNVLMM
Sequence of PfcFRS mutant (L550V) (Q8I246 whole entry, stated change not applied): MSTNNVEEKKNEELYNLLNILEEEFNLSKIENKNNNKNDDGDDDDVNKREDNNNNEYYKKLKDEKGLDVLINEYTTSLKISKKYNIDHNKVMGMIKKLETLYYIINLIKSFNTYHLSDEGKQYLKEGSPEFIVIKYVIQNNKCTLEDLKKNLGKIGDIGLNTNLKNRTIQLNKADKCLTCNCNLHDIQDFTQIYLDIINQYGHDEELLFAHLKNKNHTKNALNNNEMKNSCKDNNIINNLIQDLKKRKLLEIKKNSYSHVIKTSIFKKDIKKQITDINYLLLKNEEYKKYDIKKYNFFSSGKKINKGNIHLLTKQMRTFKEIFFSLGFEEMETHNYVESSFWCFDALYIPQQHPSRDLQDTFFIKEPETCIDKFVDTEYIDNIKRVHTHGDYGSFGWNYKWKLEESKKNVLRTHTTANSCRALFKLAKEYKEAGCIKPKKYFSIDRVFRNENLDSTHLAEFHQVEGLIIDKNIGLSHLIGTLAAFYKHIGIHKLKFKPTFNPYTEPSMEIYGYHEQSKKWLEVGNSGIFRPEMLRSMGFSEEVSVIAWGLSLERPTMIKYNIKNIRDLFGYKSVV

By IC50 is commonly meant the concentration that inhibits the measured activity by half. As usually defined, the EC50 is the concentration that produces a half-maximal response. Lower therefore signals a more potent agent. Regarding `COC[C@@H]1[C@H](c2ccc(C#Cc3ccccc3)cc2)[C@@H]2CN(C(=O)Nc3ccc(OC4CC4)cc3)C[C@@H](O)[C@@H](O)CN12` [BRD1389], the IC50 on PfcFRS mutant (L550V) was 1000 nM; in assay [1] (Plasmodium falciparum, 3D7), 0.00753 µg/mL and 13.3 nM. The remaining activity at 1 pM on PfcFRS mutant (L550V) (setting [2]) was found to be 100%. Besides, the remaining activity at 0.0001 µM on PfcFRS mutant (L550V) (setting [2]) turned out to be 99.5%. Moreover, at PfcFRS mutant (L550V) (setting [2]), the remaining activity at 0.001 µM is 98%. Further, at PfcFRS mutant (L550V) (setting [2]), the remaining activity at 0.01 µM was determined as 95.2%. For the same compound, at PfcFRS mutant (L550V) (setting [2]), the remaining activity at 0.1 µM is 75.4%. Further, the remaining activity at 1 µM on PfcFRS mutant (L550V) (setting [2]) was 55.3%. The remaining activity at 10 µM at PfcFRS mutant (L550V) (setting [2]) came to 18.8%. In addition, at PfcFRS mutant (L550V) (setting [2]), the remaining activity at 100 µM is 0%. The “Dd2 growth inhibitory activity” value in the assay with Dd2 is on record as under 1 nM. The “% Parasite Growth” value in assay [1] (3D7, 0.000976562 ug/mL) is 93.5%; in assay [1] (3D7, 0.00195312 ug/mL), 94.1%; in assay [1] (3D7, 0.00390625 ug/mL), 94.0%; in assay [1] (3D7, 0.0078125 ug/mL), 47.5%; in assay [1] (3D7, 0.015625 ug/mL) it was 14.7%; in assay [1] (3D7, 0.03125 ug/mL), 8.9%. Also, the “% Parasite Growth” value in assay [1] (3D7, 0.0625 ug/mL) was found to be 2.0%; in assay [1] (3D7, 0.125 ug/mL) it was 1.8%; in assay [1] (3D7, 0.25 ug/mL), 1.5%; in assay [1] (3D7, 0.5 ug/mL), 1.7%; in assay [1] (3D7, 1 ug/mL) it was 2.2%. Besides, the EC50 in assay [1] (Plasmodium falciparum, 3D7, 72 h) is 13 nM.
